Data on one molecule can be found in patent publication US20250134853A1, “COMPOUNDS AND METHODS FOR USING GALLOYLATED POLYPHENOLS TO TREAT DISEASES MEDIATED BY THIOL ISOMERASES” (Beth Israel Deaconess Medical Center, Inc., priority 2023, published 2025).

Experiment [1] addresses T1, SARS-CoV-2 M^pro (Severe acute respiratory syndrome coronavirus 2, UniProt P0DTD1). Nature of the experiment: SARS-CoV-2 M^pro proteolytic activity. Format: biochemical.
Experiment [2] addresses T1, SARS-CoV-2 M^pro. The note with it: cited from earlier work.
The target of experiment [3] is T2, ERp57 (Homo sapiens, UniProt P30101).
T2 construct: FLAG; made in house; host or cells: Escherichia coli Origami B (DE3)
T2 sequence (P30101 25-505): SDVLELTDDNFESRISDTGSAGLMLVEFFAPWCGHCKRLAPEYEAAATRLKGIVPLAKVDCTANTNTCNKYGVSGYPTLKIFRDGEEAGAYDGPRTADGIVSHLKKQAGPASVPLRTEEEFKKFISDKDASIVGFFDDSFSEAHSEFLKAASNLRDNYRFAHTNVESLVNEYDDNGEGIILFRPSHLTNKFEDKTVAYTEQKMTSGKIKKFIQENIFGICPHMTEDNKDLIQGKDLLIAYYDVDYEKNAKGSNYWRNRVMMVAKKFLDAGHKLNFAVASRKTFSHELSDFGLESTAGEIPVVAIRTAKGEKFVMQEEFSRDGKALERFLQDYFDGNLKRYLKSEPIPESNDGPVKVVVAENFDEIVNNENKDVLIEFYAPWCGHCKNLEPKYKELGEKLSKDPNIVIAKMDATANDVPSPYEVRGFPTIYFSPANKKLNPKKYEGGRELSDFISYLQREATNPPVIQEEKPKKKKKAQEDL
Put plainly: Di-eosin-GSSG disulfide reductase assay, ERp57. Type of experiment: biochemical. The text has this:
Recombinant protein purification. Recombinant ‘double-tagged’ (streptavidin-binding protein-tagged and FLAG-tagged) full-length PDI, ERp57, recombinant His-tagged full-length ERp5, ERp72, PDI domain fragments, and PDI mutant were cloned into a pET-15b vector at the NdeI and BamHI sites and transformed into Escherichia coli Origami B (DE3) cells (EMD Chemicals). The recombinant proteins were expressed and isolated by affinity chromatography with complete His-Tag purification resin (Roche Applied Science) or Pierce High-Capacity Streptavidin Agarose beads and purified on a Superdex 200 (GE Healthcare).
(§1) Di-eosin-GSSG disulfide reductase assay. […] Any fraction with a fold change >5 was kept.

Experiment [4] relates to PDI mutants in which His55 and His399 were replaced. The note with it: 10 μM PGHG, 15 min.
Description: Data represented as mean±SEM.
Di-eosin-GSSG disulfide reductase assay. […] Di-eosin-GSSG cleavage of purified thiol isomerases and PDI domains was monitored in a 96-well fluorescence plate format. PDI, CGXC-PDI variants, ERp5, ERp57, ERp46 and PDI domains were assayed at 50 nM in the presence or absence of the indicated small molecules. The assay included a thiol isomerase assay buffer (39 mM KH2PO4, 61 mM K2HPO4, 2 mM EDTA, 5 M DTT, pH 7.4) and 150 nM of the di-eosin-GSSG probe. The increase in fluorescence was determined for 60 min by excitation at 520 nm and emission at 550 nm in a Synergy Biotek 4. The reduction of 150 nM di-eosin-GSSG by 5 μM DTT in the presence or absence of mentioned small molecule or proteins served as a negative control.
In experiment [5] the test system is PDI domain fragments (a, a′, ab, abb′, b′xa′). Put plainly: Di-eosin-GSSG assay on isolated PDI domain fragments. Type of experiment: biochemical. The following applies: a, ab, b′xa′, abb′ fragments; PGHG at 10 μM.
Description: Di-eosin-GSSG disulfide reductase assay. The probe di-eosin glutathione disulfide, di-eosin-GSSG, was prepared by incubating 100 μM of GSSG with 1 mM of eosin isothiocyanate in 100 mM potassium phosphate containing 2 mM EDTA (pH 7.4), at 25° C. overnight in the dark. The mixture was passed down a PD-10 column and different fractions were collected. A fold change of fluorescence (Ex: 520 nm, Em: 550 nm) was calculated using samples subjected to either vehicle or 20 mM of DTT. Any fraction with a fold change >5 was kept. Using a stock of 10 mM eosin isothiocyanate, a standard curve was generated and concentration of samples were determined accordingly. Di-eosin-GSSG cleavage of purified thiol isomerases and PDI domains was monitored in a 96-well fluorescence plate format. PDI, CGXC-PDI variants, ERp5, ERp57, ERp46 and PDI domains were assayed at 50 nM in the presence or absence of the indicated small molecules. The assay included a thiol isomerase assay buffer (39 mM KH2PO4, 61 mM K2HPO4, 2 mM EDTA, 5 M DTT, pH 7.4) and 150 nM of the di-eosin-GSSG probe. The increase in fluorescence was determined for 60 min by excitation at 520 nm and emission at 550 nm in a Synergy Biotek 4. The reduction of 150 nM di-eosin-GSSG by 5 μM DTT in the presence or absence of mentioned small molecule or proteins served as a negative control.
Experiment [6] addresses T1, SARS-CoV-2 M^pro. The note with it: literature values (Table 2); read-out: SARS-CoV-2 M^pro inhibition; cited from earlier work.
The target in experiment [7] is T3, PDI (Homo sapiens, UniProt P07237).
T3 construct: FLAG; made in house; host or cells: Escherichia coli Origami B (DE3)
Nature of the experiment: Maleimide-pegylated biotin (MPB) binding to PDI. The following applies: preincubation with compound. The procedure: PDI was then exposed to MPB in Laemmli Sample buffer for 10 minutes. Samples were subsequently analyzed for MPB labeling with […] after SDS-PAGE and immunoblotting.
Maleimide-pegylated Biotin (MPB) binding. MPB-binding experiments were performed in a reaction volume of 37.5 μL of polyphenols with 5 μM of thiol isomerase in phosphate buffered saline (PBS). The reaction mixture was incubated at 37° C. for 1 h. Subsequently, the reaction mixtures were incubated with 25 μM of MPB. The labelling was performed for 20 min at 25° C. A total of 12.5 μL of 4× Laemmli Sample Buffer with 10% v/v β-mercaptoethanol was added to each of the samples, followed by heating at 95° C. for 10 min. From each sample, 10 μL was loaded on a 4-15% SDS-PAGE TGX gel, followed by transfer on a nitrocellulose membrane. After blocking the membrane with tris-buffered saline containing 0.1% v/v Tween-20 (TBS-T) containing 5% BSA for 1 h, the membrane was incubated with a 1:2,000 dilution of streptavidin-HRP in TBS-T for an hour in the dark. Detection of the immunoblots was performed using a BioRad ChemiDoc MP imager.

The target of experiment [8] is ERp46 (Homo sapiens, UniProt Q8NBS9). Nature of the experiment: Di-eosin-GSSG disulfide reductase assay, ERp46. Type of experiment: biochemical.
Text: as §1

The target of experiment [9] is T3, PDI. Put plainly: Insulin reductase assay. Format: biochemical. The following applies: PGHG incubated with PDI for 15 minutes.
Description: Insulin reductase assay. Insulin was prepared by mixing 12.5 mg/mL insulin in 50 mM Tris-HCl, pH 8. 1 M HCl was carefully added to drop the pH to 2.0 for solution clarification. Once the solution clarifies, 1 M NaOH was added to rapidly adjust the pH back to 8.0. The solution was then adjusted to 1.5 mM (10 mg/mL) with 50 mM Tris-HCl, aliquoted and stored in −20° C. until use. 2× concentrations of thiol isomerases were prepared (final concentrations as indicated in each assay) and mixed with 1.2 mM DTT (final 0.3 mM) and 0.4 mM insulin (final 0.1 mM) using a thiol isomerase activity assay buffer. Insulin precipitation from enzyme-mediated reduction was assayed in 96-well clear bottom plates at 650 nm absorption.
Experiment [10] has as its system SARS-CoV-2. Nature of the experiment: Vero E6-based viral replication assay. Format: cell-based.
The test system of experiment [11] is SARS-CoV-2. The following applies: cited from earlier work.

SMILES strings stand for the structures. “Also recorded” adds a separate entry of the source. Read-outs that look alike come from different tables or passages of the source.

T3 sequence (P07237 18-508): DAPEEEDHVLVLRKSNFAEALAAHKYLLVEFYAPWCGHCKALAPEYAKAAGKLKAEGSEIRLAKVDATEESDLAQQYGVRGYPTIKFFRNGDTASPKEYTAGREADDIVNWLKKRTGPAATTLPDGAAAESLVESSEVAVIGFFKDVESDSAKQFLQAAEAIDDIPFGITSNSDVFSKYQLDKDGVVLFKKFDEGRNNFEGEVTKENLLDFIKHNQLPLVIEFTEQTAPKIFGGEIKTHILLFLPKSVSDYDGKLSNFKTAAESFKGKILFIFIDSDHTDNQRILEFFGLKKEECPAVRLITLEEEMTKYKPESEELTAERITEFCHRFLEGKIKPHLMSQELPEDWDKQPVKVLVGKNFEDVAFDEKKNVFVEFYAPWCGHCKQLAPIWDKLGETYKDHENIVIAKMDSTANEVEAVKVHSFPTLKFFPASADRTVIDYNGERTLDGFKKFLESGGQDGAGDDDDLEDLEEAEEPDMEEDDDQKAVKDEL
ERp46, sequence (Q8NBS9 33-432, species assumed): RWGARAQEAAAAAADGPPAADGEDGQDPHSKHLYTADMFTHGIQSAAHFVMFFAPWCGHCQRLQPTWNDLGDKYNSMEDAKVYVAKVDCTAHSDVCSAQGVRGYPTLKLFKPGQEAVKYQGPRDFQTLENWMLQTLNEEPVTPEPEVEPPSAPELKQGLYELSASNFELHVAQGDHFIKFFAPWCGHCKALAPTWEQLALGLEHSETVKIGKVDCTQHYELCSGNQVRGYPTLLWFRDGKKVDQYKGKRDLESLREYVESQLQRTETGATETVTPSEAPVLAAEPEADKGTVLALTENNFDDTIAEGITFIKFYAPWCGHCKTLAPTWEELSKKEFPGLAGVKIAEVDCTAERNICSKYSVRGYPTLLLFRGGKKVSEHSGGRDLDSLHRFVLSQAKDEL

Consider `O=C(O[C@@H]1[C@@H](O)[C@H](Oc2cc(O)c3c(c2)O[C@H](c2ccccc2)CC3=O)O[C@@H]2COC(=O)c3cc(O)c(O)c(O)c3-c3c(cc(O)c(O)c3O)C(=O)O[C@@H]12)c1cc(O)c(O)c(O)c1` [PGHG, pinocembrin 7-O-(3″-galloyl-4″,6″-(S)-hexahydroxydiphenoyl)-beta-D-glucose], for which the IC50 in [1] was 6.5 µM; in [3], 3.3 µM; in experiment [6], 6.5 µM; in [8], 3.9 µM; in experiment [10], 4.9 µM; in experiment [11] (Vero Cells, read-out: Inhibition of viral replication IC50), 5 µM. For the same molecule, the “Modeling shows gallic acid interaction with His41 or Glu166” value in experiment [2] is reported as “His41; Glu166”. Further, in experiment [4], the “susceptibility of His55/His399 PDI mutants (Ala, Asp, Arg)” value is “mutants were resistance to PGHG”. In [5], the “inhibition of isolated PDI fragments” value is “inhibited a and a′ fragments as well as ab, b′xa′ and abb′x fragments; also recorded: inhibited activity of all fragments including the isolated the a and a′ domains”. The “effect on MPB binding to PDI” value in experiment [7] was “no significant effect on MPB binding”. The “inhibition of PDI in insulin reductase assay (in words)” value in [9] is given as “low micromolar range”. Also, the “inhibition of SARS-CoV-2 / infection (in words)” value in [11] is listed as “inhibitors of SARS-CoV-2”.
